According to publication PMC2888578, “Conformational Determinants of Phosphotyrosine Peptides Complexed with the Src SH2 Domain” (PLoS ONE, 2010):
Where two headings read alike, the source gives them in different places. Where a SMILES comes first, the peptide text is derived from it. Where no end group is shown, it is not given here. [ ]: non-standard residue; d: D form. pY = N[C@@H](Cc1ccc(OP(=O)(O)O)cc1)C(=O)O

Tests used:
Src SH2 = settings: cited from earlier work
Src SH2 domain = biological target: T1, Src SH2 domain (Homo sapiens, UniProt P12931); test: fluorescence polarization (FP) competition binding assay against fluorescent probe EPQ(pY)EEIPIYL(K-Flc); settings: for IC50: concentration that reduces binding of fluorescein-labeled probe EPQ(pY)EEIPIYL(K-Flc) to the Src SH2 domain by 50%, 350 nM GST-Src SH2, 50 nM probe, 25°C, pH 7.3
T1 construct: 350 nM of GST-Src SH2 domain fusion protein
Method: The relative binding affinity of phosphopeptides to the Src SH2 domain was tested by competition against a fluorescent probe using a fluorescence polarization (FP) binding assay, [17], [18]. FP was measured at 25°C in a disposable glass tube, using a Beacon 2000 luminescence spectrometer equipped with an FP apparatus. The excitation and emission wavelengths were set at 485 and 535 nm, respectively. The fluorescent probe was the fluorescein (Flc)-labeled phosphopeptide EPQ(pY)EEIPIYL(K-Flc). For the competition assay, final concentrations of 350 nM of GST-Src SH2 domain fusion protein, 50 nM fluorescent probe, HEPES buffer (20 mM, pH 7.3, 100 mM NaCl, 2 mM DTT, 0.1% BSA) and various concentrations (0–100 µM) of each competitor peptide were used. A blank control (with the Src SH2 domain but without a peptide) and a background control (without both the Src SH2 domain and the peptide) were used. The inhibition percentage IP of fluorescent probe binding to the Src SH2 domain by the sample was calculated by the following equation: [drawing 1] where FP0 is the fluorescent polarization value of the blank control, FP is the fluorescent polarization value of the sample (peptide), and FPb is the fluorescent polarization value of the background control. The inhibition percentages of the various concentrations of the assayed peptides were plotted, and the IC50 value (the concentration that inhibits the binding of the fluorescent probe to the Src SH2 domain by 50%) was calculated.

T1 sequence (P12931 151-248 limits assumed): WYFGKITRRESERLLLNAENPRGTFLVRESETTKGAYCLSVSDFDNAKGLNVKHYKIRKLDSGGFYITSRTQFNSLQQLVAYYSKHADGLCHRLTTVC

Compound	IC50 (Src SH2 domain) [nM]	other results
pTyr-Val-Pro-Met-Leu ([pY]VPML) [phosphopeptide of the less specific Src SH2 crystal structure 1SHA]		Kd (Src SH2; complex of crystal structure 1SHA, read-out: Kd): 5500 nM
CC[C@H](C)[C@H](NC(=O)[C@H](CC(N)=O)NC(=O)[C@H](CCC(=O)O)NC(=O)[C@@H](N)Cc1ccc(OP(=O)(O)O)cc1)C(=O)O [pYENI, pTyr-Glu-Asn-Ile] (H-[pY]ENI-OH)	1000 ± 100	
CC(C)[C@H](NC(=O)[C@H](CC(N)=O)NC(=O)[C@H](CCC(=O)O)NC(=O)[C@@H](N)Cc1ccc(OP(=O)(O)O)cc1)C(=O)O [pYENV] (H-[pY]ENV-OH)	2100 ± 700	
pTyr-Glu-Glu-Ile-Pro ([pY]EEIP)		Kd (Src SH2; complex of crystal structure 1SPS, read-out: affinity of the high-affinity complex with Src SH2): 80 to 200 nM
CC(C)[C@H](NC(=O)[C@H](CC(N)=O)NC(=O)[C@@H](NC(=O)[C@@H](N)Cc1ccc(OP(=O)(O)O)cc1)C(C)C)C(=O)O [pYVNV, pTyr-Val-Asn-Val-Ala]		est. ΔG (Src SH2 domain; estimated binding free energy from FP IC50): -6.96 kcal/mol
N[C@@H](Cc1ccc(OP(=O)(O)O)cc1)C(=O)N[C@@H](CCC(=O)O)C(=O)N[C@@H](CCC(=O)O)C(=O)NCC(=O)O [pYEEG] (H-[pY]EEG-OH)	5700 ± 2100	
